Experimental data published in PubChem BioAssay (NCI).
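Where inhibition never reached the appropriate level, the endpoint shown equals the highest concentration tested. Otherwise, values were interpolated linearly from a five-concentration, 48-hour dose response in 96-well plates. TGI marks complete inhibition of growth.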

Tests used:
Assay in all cases: inhibition of tumour cell growth, NCI panel, 48 h
786-0 renal = test system: 786-0 renal
A498 renal = test system: A498 renal
A549 NSCLC = test system: A549 NSCLC
ACHN renal = test system: ACHN renal
BT-549 breast = test system: BT-549 breast
CAKI-1 renal = test system: CAKI-1 renal
CCRF-CEM leukemia = test system: CCRF-CEM leukemia
COLO 205 colon = test system: COLO 205 colon
DU-145 prostate = test system: DU-145 prostate
EKVX NSCLC = test system: EKVX NSCLC
HCC-2998 colon = test system: HCC-2998 colon
HCT-116 colon = test system: HCT-116 colon
HCT-15 colon = test system: HCT-15 colon
HL-60(TB) leukemia = test system: HL-60(TB) leukemia
HOP-62 NSCLC = test system: HOP-62 NSCLC
HOP-92 NSCLC = test system: HOP-92 NSCLC
HT29 colon = test system: HT29 colon
IGROV1 ovarian = test system: IGROV1 ovarian
K-562 leukemia = test system: K-562 leukemia
KM12 colon = test system: KM12 colon
M14 melanoma = test system: M14 melanoma
MALME-3M melanoma = test system: MALME-3M melanoma
MCF7 breast = test system: MCF7 breast
MDA-MB-231 breast = test system: MDA-MB-231 breast
MDA-MB-435 = test system: MDA-MB-435
MDA-N = test system: MDA-N
MOLT-4 leukemia = test system: MOLT-4 leukemia
NCI-H226 lung = test system: NCI-H226 lung
NCI-H23 lung = test system: NCI-H23 lung
NCI-H460 lung = test system: NCI-H460 lung
NCI-H522 lung = test system: NCI-H522 lung
NCI/ADR-RES ovarian = test system: NCI/ADR-RES ovarian
OVCAR-3 ovarian = test system: OVCAR-3 ovarian
OVCAR-4 ovarian = test system: OVCAR-4 ovarian
OVCAR-5 ovarian = test system: OVCAR-5 ovarian
OVCAR-8 ovarian = test system: OVCAR-8 ovarian
PC-3 prostate = test system: PC-3 prostate
RPMI-8226 leukemia = test system: RPMI-8226 leukemia
RXF 393 renal = test system: RXF 393 renal
SF-268 CNS = test system: SF-268 CNS
SF-295 CNS = test system: SF-295 CNS
SF-539 CNS = test system: SF-539 CNS
SK-MEL-2 melanoma = test system: SK-MEL-2 melanoma
SK-MEL-28 melanoma = test system: SK-MEL-28 melanoma
SK-OV-3 ovarian = test system: SK-OV-3 ovarian
SN12C renal = test system: SN12C renal
SNB-19 CNS = test system: SNB-19 CNS
SNB-75 CNS = test system: SNB-75 CNS
SR leukemia = test system: SR leukemia
SW-620 colon = test system: SW-620 colon
T-47D breast = test system: T-47D breast
U251 CNS = test system: U251 CNS
UACC-257 melanoma = test system: UACC-257 melanoma
UACC-62 melanoma = test system: UACC-62 melanoma
UO-31 renal = test system: UO-31 renal

`O=c1[nH]nc(Cc2ccc(Cl)cc2)n1/N=C/c1cccs1` showed a TGI (786-0 renal) of over 100 µM, a TGI (A498 renal) of over 100 µM and a TGI (A549 NSCLC) of over 100 µM. It also gave a TGI (ACHN renal) of over 100 µM, a TGI (BT-549 breast) of 66.5 µM and a TGI (CAKI-1 renal) of over 100 µM. It also gave a TGI (CCRF-CEM leukemia) of over 100 µM, a TGI (COLO 205 colon) of over 100 µM and a TGI (DU-145 prostate) of over 100 µM. It also gave a TGI (EKVX NSCLC) of over 100 µM, a TGI (HCC-2998 colon) of over 100 µM and a TGI (HCT-116 colon) of over 100 µM. For the same compound, the TGI (HCT-15 colon) was over 100 µM, the TGI (HL-60(TB) leukemia) was over 100 µM and the TGI (HOP-62 NSCLC) was 55.2 µM. It also gave a TGI (HOP-92 NSCLC) of 64.2 µM, a TGI (HT29 colon) of 40.2 µM and a TGI (IGROV1 ovarian) of 79.5 µM. It also gave a TGI (K-562 leukemia) of over 100 µM, a TGI (KM12 colon) of over 100 µM and a TGI (M14 melanoma) of over 100 µM. It also gave a TGI (MALME-3M melanoma) of over 100 µM, a TGI (MCF7 breast) of over 100 µM and a TGI (MDA-MB-231 breast) of 49.7 µM. For the same compound, the TGI (MDA-MB-435) was over 100 µM, the TGI (MDA-N) was over 100 µM and the TGI (MOLT-4 leukemia) was over 100 µM. For the same compound, the TGI (NCI-H226 lung) was over 100 µM, the TGI (NCI-H23 lung) was over 100 µM and the TGI (NCI-H460 lung) was over 100 µM. The TGI (NCI-H522 lung) was 68.8 µM, the TGI (NCI/ADR-RES ovarian) was over 100 µM and the TGI (OVCAR-3 ovarian) was over 100 µM. For the same compound, the TGI (OVCAR-4 ovarian) was over 100 µM, the TGI (OVCAR-5 ovarian) was over 100 µM and the TGI (OVCAR-8 ovarian) was over 100 µM. It also gave a TGI (PC-3 prostate) of over 100 µM, a TGI (RPMI-8226 leukemia) of over 100 µM and a TGI (RXF 393 renal) of 32.7 µM. It also gave a TGI (SF-268 CNS) of 42.9 µM, a TGI (SF-295 CNS) of 44 µM and a TGI (SF-539 CNS) of over 100 µM. It also gave a TGI (SK-MEL-2 melanoma) of 93.6 µM, a TGI (SK-MEL-28 melanoma) of over 100 µM and a TGI (SK-OV-3 ovarian) of over 100 µM. For the same compound, the TGI (SN12C renal) was over 100 µM, the TGI (SNB-19 CNS) was 64 µM and the TGI (SNB-75 CNS) was 49.9 µM. The TGI (SR leukemia) was over 100 µM, the TGI (SW-620 colon) was over 100 µM and the TGI (T-47D breast) was over 100 µM. The TGI (U251 CNS) was over 100 µM, the TGI (UACC-257 melanoma) was over 100 µM and the TGI (UACC-62 melanoma) was over 100 µM. For the same compound, the TGI (UO-31 renal) was over 100 µM.
